Measurements reported in patent US20220040150A1, “I[…] ADMI[…] FOR DMT-ASSISTED PSYCHOTHERAPY” (Universitatsspital Basel, priority 2020, published 2022).
Entries after “also recorded” stand apart in the source; their conditions may differ. Like-named read-outs stand apart in the source and are kept apart here.

Legend:
[1] = Plasma levels of DMT after intravenous bolus plus continuous infusion (Gouzoulis-Mayfrank et al., 2005); format: in vivo; conditions: human
Experimental: Previous research already documented the rapid action of DMT and its safety (Gouzoulis-Mayfrank et al., 2005). A study included 15 healthy volunteers. DMT was given at either a low or a high dose. The low dose consisted of a bolus injection of 0.2 mg/kg (˜15 mg) over 5 minutes followed by a break of one minute, followed by a continuous infusion with 0.015 mg/kg (˜1 mg)/min over 84 minutes. The high dose consisted of a bolus injection of 0.3 mg/kg (˜23 mg) and a continuous infusion with 0.02 mg/kg (˜1.5 mg)/min. The two doses were administered on the same day with a two-hour break between the end of the first and the beginning of the second administration in a single-blind design. Subjective effects were assessed and plasma concentrations of DMT were determined during the perfusion and thereafter. Effects of both doses included vivid alterations of visual, auditory, and tactile perception. […] Most subjects tended to report their experiences during the experiment spontaneously, and they were interested in interpersonal interactions. Mood varied from anxious and tense to expansive and euphoric with mostly vivid verbal, mimic, and psychomotor expression of emotions. Ego-control and insight into the experimental nature of the experience were preserved at the low dose. […]

[2] = DMT plasma concentrations after intravenous bolus, pilot study (Timmermann et al., 2019); format: in vivo; conditions: human, consistent with measurements of Timmermann 2019 and Strassman 1994, may represent redistribution, read-out: approximate elimination half-life
Experimental: A more recent pilot study also assessed plasma concentrations of DMT after intravenous bolus administration of 7-20 mg of DMT in a small number of subjects (Timmermann et al., 2019). DMT blood concentrations were approximately 56 ng/mL 2 minutes after administration of 14 mg (corresponding to approximately 0.2 mg/kg) (Timmermann et al., 2019) in line with the aforementioned data by Strassman (Strassman et al., 1994). The measurements from both studies are consistent with an approximate elimination half-life of 5-10 minutes. However, this may represent rapid redistribution and metabolism and may therefore be shorter than the true elimination half-life (see above). The study only used a bolus, so it is different from the present invention. The above descriptions illustrate that there is limited information on the effects of intravenous DMT administration. However, no study has validly determined the elimination half-life of DMT and other pharmacokinetic parameters and this will be done within the current invention to have better and rational basis on dosing.

healthy subjects [3] = experiment: Example 1 clinical study: adverse effects and list of complaints
Experimental: Identical placebo (saline) was prepared.
Adverse effects and list of complaints: The list of complaints (LC) consists of 66 items offering a global score measuring physical and general discomfort (Zerssen, 1976). The LC list is administered before and at the end of the session with reference to complaints throughout the entire session.

[4] = test system: experienced hallucinogen-using volunteers; conditions: 0.3 mg/kg iv at half-hour intervals 4 times in a morning; cited from earlier work
[5] = target: serotonin 5-HT2A receptor (Homo sapiens, UniProt P28223); conditions: similar to LSD and psilocybin; cited from earlier work
Sequence of serotonin 5-HT2A receptor (P28223 whole entry): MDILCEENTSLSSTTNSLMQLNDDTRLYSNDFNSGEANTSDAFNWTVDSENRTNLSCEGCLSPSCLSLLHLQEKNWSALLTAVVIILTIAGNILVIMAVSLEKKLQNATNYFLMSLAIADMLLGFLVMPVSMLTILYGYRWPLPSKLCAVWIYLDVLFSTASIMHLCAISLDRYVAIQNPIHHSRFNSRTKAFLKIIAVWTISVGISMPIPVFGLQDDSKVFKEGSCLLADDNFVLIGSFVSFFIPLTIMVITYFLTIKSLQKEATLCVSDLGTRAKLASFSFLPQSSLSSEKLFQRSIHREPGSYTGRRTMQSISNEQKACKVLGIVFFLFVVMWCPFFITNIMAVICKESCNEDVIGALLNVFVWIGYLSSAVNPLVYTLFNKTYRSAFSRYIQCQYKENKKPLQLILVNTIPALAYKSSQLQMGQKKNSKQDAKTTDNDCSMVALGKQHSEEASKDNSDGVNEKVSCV

serotonin transporter = serotonin transporter (Homo sapiens, UniProt P31645); conditions: in contrast to LSD; cited from earlier work
Sequence of serotonin transporter (P31645 whole entry): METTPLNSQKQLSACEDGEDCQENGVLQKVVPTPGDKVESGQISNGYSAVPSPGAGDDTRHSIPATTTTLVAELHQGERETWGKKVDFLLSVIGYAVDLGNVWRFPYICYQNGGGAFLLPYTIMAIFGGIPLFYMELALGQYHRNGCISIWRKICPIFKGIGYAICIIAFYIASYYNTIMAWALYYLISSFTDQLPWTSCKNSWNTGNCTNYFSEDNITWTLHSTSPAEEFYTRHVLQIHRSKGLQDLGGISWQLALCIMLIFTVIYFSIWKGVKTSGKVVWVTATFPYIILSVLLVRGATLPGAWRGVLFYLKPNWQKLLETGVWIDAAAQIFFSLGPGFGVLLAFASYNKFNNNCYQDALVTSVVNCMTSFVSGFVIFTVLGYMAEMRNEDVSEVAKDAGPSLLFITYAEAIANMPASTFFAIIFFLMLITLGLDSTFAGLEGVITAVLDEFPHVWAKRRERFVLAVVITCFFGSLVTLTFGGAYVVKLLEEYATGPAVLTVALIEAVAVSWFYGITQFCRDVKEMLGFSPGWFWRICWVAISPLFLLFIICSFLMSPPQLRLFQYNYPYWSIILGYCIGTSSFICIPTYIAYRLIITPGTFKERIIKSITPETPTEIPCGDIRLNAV

[6] = cited from earlier work
[7] = cited from earlier work; remark: listed apart in the source
healthy volunteers = conditions: cited from earlier work
[8] = 0.4 mg/kg iv bolus, cited from earlier work
[9] = test system: healthy subjects with previous hallucinogen experience; conditions: cited from earlier work
[10] = 0.3 mg/kg iv, cited from earlier work
healthy subjects [11] = experiment: Example 1 clinical study: subjective effects rating over time
[12] = perfusion with placebo bolus, two subjects

## CN(C)CCc1c[nH]c2ccccc12 [DMT, N,N-dimethyltryptamine]
[1]; in line with subjective effects and Strassman data, read-out: true half-life (likely)
  half-life: ~10 min
[1]; indicated by the very crude and possibly invalid plasma data, read-out: elimination half-life
  half-life: ~30 min
[2]
  half-life: 5 to 10 min
Healthy subjects [3]; Example 1
  relevant adverse effects: did not result in relevant adverse effects
  safety of administration: safe
Healthy subjects [3]; perfusion rate, Example 1
  highest dose still well-tolerated by the study population: 1 mg of DMT/min
Healthy subjects [3]; perfusion without bolus, two subjects
  reported complaints: lack of appetite; also recorded: tiredness, palpitations, cold feet, and dry mouth
[4]
  Tolerance to the subjective effects of DMT: did not occur
[5]
  interaction with the serotonin 5-HT2A receptor: interacts
Serotonin transporter
  interaction with the serotonin transporter: interacts
[6]; administered parenterally
  duration of action: less than 20 min
[6]; oral, without MAO inhibition
  activity when administered orally: inactive
[7]; 10 minutes before start of second dose, 110 minutes after stopping the first infusion
  Plasma levels of DMT: 5 ± 3 ng/mL
[7]; high dose: bolus 0.3 mg/kg, then infusion 0.02 mg/kg/min
  Mean plasma levels of DMT: 60 ± 28 ng/mL
[7]; low dose: bolus 0.2 mg/kg over 5 minutes, then infusion 0.015 mg/kg/min over 84 minutes
  Mean plasma levels of DMT: 43 ± 26 ng/mL
Healthy volunteers; after stopping infusion
  time within which subjective effects subsided: ≤ 20 min
Healthy volunteers; among the 15 subjects
  subjects who stopped after the first DMT dose due to adverse responses: 3
Healthy volunteers; high dose
  persons reporting visual hallucinations: all participants
Healthy volunteers; in vivo
  time for adverse effects to vanish from stopping the infusion: within a few minutes
Healthy volunteers; low dose, 15 healthy volunteers
  persons reporting visual hallucinations: seven
Healthy volunteers; seven days and 12 months after the experiments
  lasting complaints at interviews: no lasting complaints
Healthy volunteers; subjects who received DMT
  subjects reporting tiredness and headache in the evening of the experiment: 10 out of 13
[8]; 2 minutes
  Blood levels of DMT base: ~90 ng/mL
[8]; 5 minutes
  Blood levels of DMT base: ~42 ng/mL
[8]; 10 minutes
  Blood levels of DMT base: ~28 ng/mL
[8]; 15 minutes
  Blood levels of DMT base: ~17 ng/mL
[8]; 30 minutes
  Blood levels of DMT base: ~5 ng/mL
[9]; at 2 minutes
  Average heart rate: 100 beats/min
  mean arterial blood pressure: 108 mm Hg
[9]; iv bolus
  blood pressure, heart rate, pupil size, body core temperature, blood levels of ACTH, cortisol, PRL, β-endorphin and growth hormone: increased
[10]; after 2 minutes
  blood DMT levels: ~70 ng/mL
[10]; after 5 minutes
  blood DMT levels: ~50 ng/mL
[10]; after 10 minutes
  blood DMT levels: ~30 ng/mL
[10]; after 15 minutes
  blood DMT levels: ~18 ng/mL
Healthy subjects [11]; 90 minutes perfusion
  duration of the psychedelic state: approximately 90 minutes
Healthy subjects [11]; available data from Example 1
  time to new steady state after starting the perfusion: approximately 20 minutes
Healthy subjects [11]; bolus and perfusion, 2-5 minutes after the bolus
  ratings of bad drug effects and anxiety: small increases
Healthy subjects [11]; bolus and perfusion, mean in three subjects
  ratings of any drug effects: maximal within seconds
Healthy subjects [11]; bolus and perfusion, three subjects
  ratings of good drug effects: maximal immediately after the DMT bolus administration and up to 30 minutes
Healthy subjects [11]; perfusion with placebo bolus
  bad drug effects and anxiety ratings: no bad drug effects and no anxiety
  time over which good drug effects steadily increased after start of the perfusion: 30 min
  time to disappearance of good drug effects after stopping the perfusion: less than 10 minutes
Healthy subjects [11]; perfusion with placebo bolus, dose used in the example
  description of the DMT experience: overall similar to LSD at a moderate dose of 0.05-0.1 mg LSD base
Healthy subjects [11]; [12]
  time over which any drug effects steadily increased after starting the perfusion: 30 min
  time to disappearance of effect after perfusion ended at 90 minutes: less than 10 minutes
